# Laboratory results published in patent US20240099996A1, “METHODS FOR TREATING CANCER” (Radius Pharmaceuticals, Inc., priority 2015, published 2024).
# Counter-ions that a name gives are not always drawn.
# Tests used:
# MCF-7 xenograft = assay: Ki67 staining of MCF-7 xenograft tumors; format: in vivo, mice; conditions: RAD1901 90 mg/kg; 8 hours after single dose and 24 hours after 4th dose
# ER [1] = assay: Western blot of ER and PR in MCF-7 xenograft tumors; format: in vivo, mice
# Procedure: Cells were harvested and protein expression was analyzed using standard practice. Tumors were harvested at the indicated time points after the last day of dosing, homogenized in RIPA buffer with protease and phosphatase inhibitors using a Tissuelyser (Qiagen). Equal amounts of protein were separated by MW, transferred to nitrocellulose membranes and blotted with the following antibodies using standard practice: • Estrogen receptor (SantaCruz (HC-20); sc-543) • Progesterone receptor (Cell Signaling Technologies; 3153) • Vinculin (Sigma-Aldrich, v9131)
# ER [2] = target: T1, ER (Homo sapiens, UniProt P03372); assay: FES-PET ER engagement in healthy post-menopausal females; format: in vivo; design: from tissue; host or cells: uterus (and pituitary) of healthy post-menopausal women, in vivo
# T1 sequence (P03372 1-595): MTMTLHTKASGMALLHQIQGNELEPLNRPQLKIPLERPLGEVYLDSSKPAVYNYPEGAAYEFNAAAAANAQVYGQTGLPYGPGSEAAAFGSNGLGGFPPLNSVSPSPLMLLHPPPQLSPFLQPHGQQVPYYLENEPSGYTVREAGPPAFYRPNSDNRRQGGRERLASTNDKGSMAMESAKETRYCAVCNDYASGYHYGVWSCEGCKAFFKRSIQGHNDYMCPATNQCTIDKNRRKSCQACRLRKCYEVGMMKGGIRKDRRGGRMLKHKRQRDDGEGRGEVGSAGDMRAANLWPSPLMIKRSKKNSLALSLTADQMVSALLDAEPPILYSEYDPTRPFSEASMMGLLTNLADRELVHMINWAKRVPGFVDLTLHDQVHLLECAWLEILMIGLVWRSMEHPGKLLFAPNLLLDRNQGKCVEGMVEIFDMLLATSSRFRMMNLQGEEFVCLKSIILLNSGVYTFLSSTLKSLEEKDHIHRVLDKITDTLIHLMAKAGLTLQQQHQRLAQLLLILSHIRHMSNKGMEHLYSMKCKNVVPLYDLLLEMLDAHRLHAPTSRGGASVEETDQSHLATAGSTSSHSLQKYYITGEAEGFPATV
# From the text: The subjects were 40-75 years old with BMI of 18.0-30 kg/m2. Subjects had intact uterus. Subjects having evidence of clinically relevant pathology, increased risk of stroke or of history venous thromboembolic events, or use of concomitant medication less than 14 days prior to admission to clinical research center (paracetamol allowed up to 3 days prior) were excluded.
# PDx-5 = assay: PR expression in PDx-5 tumors; format: in vivo, mice; conditions: RAD1901 60, 120 mg/kg p.o., q.d.; fulvestrant 3 mg/dose
# From the text: Tumors were harvested at the indicated time points after the last day of dosing (unless otherwise specified), homogenized in RIPA buffer with protease and phosphatase inhibitors using a Tissuelyser (Qiagen). Equal amounts of protein were separated by MW, transferred to nitrocellulose membranes and blotted with the following antibody as described in the Materials and methods section: progesterone receptor (PR, Cell Signaling Technologies; 3153).
# Bands were quantified using 1D Quant software (GE), and PR (Allred scores) obtained from the PDx-5 models as described in Example I(A)(iii)(1) are shown in FIG. 22.
# [3] = tested on: patient-derived xenograft (PDx) models; assay: PDx models PDx-1 to PDx-12, tumor growth inhibition screen; format: in vivo, mice; conditions: RAD1901 60 or 90 mg/kg p.o., q.d., 60 days
# [4] = 500 mg PO once/day for six days, n = 4
smiles,measurement,setting,value
"CCNCCc1ccc(CN(CC)c2cc(OC)ccc2[C@@H]2CCc3cc(O)ccc3C2)cc1 [RAD1901, (6R)-6-(2-(N-(4-(2-(ethylamino)ethyl)benzyl)-N-ethylamino)-4-methoxyphenyl)-5,6,7,8-tetrahydronaphthalen-2-ol dihydrochloride]",proliferation marker Ki67,MCF-7 xenograft,rapid decrease of the proliferation marker Ki67
same,ER and PR expression in tumor,"ER [1]; 2 hours after final dose, RAD1901 30, 60 mg/kg p.o., q.d., fulvestrant 3 mg/dose s.c., qwk",significantly decreased ER and PR expression
same,PR and ER expression in tumor,"ER [1]; 8 hours after final dose, RAD1901 30, 60 mg/kg, fulvestrant 3 mg/dose",reduced PR and ER expression
same,"PR expression in tumor, western blot quantification","ER [1]; RAD1901 30, 60, 90 mg/kg p.o., q.d.",dose-dependent decrease in PR
same,"Bone SUV Change (%), Mean",ER [2]; [4],13%
same,"Muscle SUV Change (%), Mean",ER [2]; [4],1%
same,"Uterus SUV Change (%), Mean",ER [2]; [4],−86%
same,post-dose FES-PET signal at uterus and pituitary,"ER [2]; 500 mg p.o., q.d., six days",no noticeable signal of ER binding
same,PR expression (Allred scores),PDx-5,showed efficacy at dosages of both 60 mg/kg and 120 mg/kg
same,tumor growth inhibition,[3],efficacious in inhibiting tumor growth
